Assay results: EPA's ToxValDB 9.5
Where “and” joins values, the source holds several entries; their conditions need not be identical. Equal entries are not always repeated.

Legend:
Rattus norvegicus [1] = conditions: oral
Rattus norvegicus [2] = conditions: oral; remark: listed apart in the source
Rattus norvegicus [3] = conditions: oral; remark: listed apart in the source
Mus musculus [4] = conditions: subchronic; duration: 90 days; oral; gavage; M/F; CD1; hepatic
Mus musculus [5] = conditions: M/F
Rattus norvegicus [6] = system: Rattus norvegicus
Rattus norvegicus [7] = conditions: Hershberger, oral, gavage
Rattus norvegicus [8] = conditions: oral, gavage, Fischer 344
Mus musculus [9] = conditions: oral, gavage, B6C3F1
Canidae = conditions: chronic; duration: 1 years; oral; diet; M/F; Dog Other; gastric mucosal irritation
[10] = subchronic, M, liver/body weight ratio and hepatic microsomal enzyme induction
[11] = subchronic, M/F, hypoactivity and ataxia
[12] = subchronic, oral, hepatotoxicity
[13] = duration: 10 days, Sprague-Dawley, active + Negative + Antiandrogenic + anti-androgenic + significant decrease in serum testosterone at 800 (49% decrease at 400 NS) / …
[14] = developmental, duration: 2 years, diet, M/F, reduced body weight gain, reduced pup weight and parental food consumption
[15] = developmental, M/F, reduced pup weight and parental food consumption
[16] = subchronic, M/F, reduced mean terminal body weight (males)
[17] = subchronic, gavage, M, Induction of hepatic enzymes + liver histopathology
[18] = subchronic, M/F, reduced body weight
[19] = subchronic, M/F, reduced rbc and plasma cholinesterase activity
[20] = subchronic, duration: 90 days, M/F, reduced body weight and neurotoxicity

Brc1ccc(Br)cc1 [1,4-Dibromobenzene]
LOAEL (Rattus norvegicus [1]; [10]): 20 mg/kg-day | NOAEL (Rattus norvegicus [1]; [10]): 10 mg/kg-day | NOAEL (Rattus norvegicus [2]; subchronic, duration: 45 days, gavage, Liver: Altered enzyme activities + Liver: Increased relative weight): 10 mg/kg-day

O=C1C=CC(=O)O1 [2,5-Furandione]
NOAEL (Rattus norvegicus [1]; chronic, M/F, no effects): 10 mg/kg-day | LOAEL (Rattus norvegicus [1]; reproduction developmental, M/F, renal lesions): 20 mg/kg-day | NOAEL (Rattus norvegicus [3]; subchronic, duration: 90 days, diet, M/F, Sprague-Dawley, Urinalysis: Pro increase + Absolute Organ Weight: Kidney increase + Relative Organ Weight: Liver increase, Kidney increase + Necropsy: …): < 100 mg/kg-day | NOAEL (Rattus norvegicus [2]; chronic, duration: 2 years, diet, Kidney: Lesions): 10 mg/kg-day

CC(C)CO [2-Methyl-1-propanol]
LOAEL (Rattus norvegicus [1]; [11]): 1000 mg/kg-day | NOEL (Rattus norvegicus [1]; [11]): 316 mg/kg-day | NOAEL (Rattus norvegicus [3]; subchronic, duration: 90 days, gavage, M/F, CD, Deaths + Clinical Observation: Hypoactivity Ataxia Salivation Labored respiration Rales Prostration Hypothermia Emaciation + Body Weight …): 316 mg/kg-day | NOAEL (Rattus norvegicus [3]; subchronic, drinking water, Wistar): 2430 mg/kg-day | NOEL (Rattus norvegicus [2]; subchronic, duration: 13 weeks, gavage, Nervous system: Ataxia + Nervous system: Hypoactivity): 316 mg/kg-day

S=C1NCCN1 [4,5-Dihydro-2-mercaptoimidazole]
LOAEL (Rattus norvegicus [1]; chronic, duration: 24 months, diet, M/F, increased incidence of thyroid hyperplasia): 0.25 mg/kg-day | NOEL (Rattus norvegicus [3]; subchronic, duration: 13 weeks, diet, M/F, Fischer 344, Body Weight Changes: decrease + Food Consumption: decrease + Histopathology: Thyroid-Diffuse follicular cell hyperplasia Thyroid-Focal …): < 5.76 mg/kg-day | LOAEL (Rattus norvegicus [2]; chronic, duration: 24 months, diet, Thyroid: Hyperplasia): 0.25 mg/kg-day

c1cc2c3c(cccc3c1)CC2 [Acenaphthene]
LOAEL (Mus musculus [4]): 175 mg/kg-day | LOAEL (Mus musculus [5]; [12]): 350 mg/kg-day | NOAEL (Mus musculus [5]; [12]): 175 mg/kg-day

[Al+3].[P-3] [Aluminum phosphide]
NOAEL (Rattus norvegicus [1]; chronic, M/F, body weight and clinical parameters): 0.043 mg/kg-day | NOAEL (Rattus norvegicus [2]; chronic, duration: 2 years, diet, Unspecified: Altered clinical parameters + Whole body: Altered weight): 0.43 mg/kg-day

[O]=[Sb](=[O])[O][Sb](=[O])=[O] [Antimony pentoxide]
LOAEL (Rattus norvegicus [2]; chronic, drinking water, blood: Altered chemistries + Whole body: Increased mortality): 0.46 mg/kg-day

N#Cc1cc(Br)c(O)c(Br)c1 [Bromoxynil]
NOEL (Rattus norvegicus [1]; chronic, duration: 2 years, diet, M/F, no effects): 5 mg/kg-day | NOEL (Rattus norvegicus [2]; chronic, duration: 2 years, diet, None Observed): 5 mg/kg-day

Nc1cc(Cl)cc(C(=O)O)c1Cl [Chloramben]
LEL (Mus musculus [5]; chronic, duration: 18 months, oral, diet, CD1, hepatocyte degeneration): 15 mg/kg-day

NCl [Chloramine]
NOAEL (Rattus norvegicus [1]; chronic, M/F, no effects): 9.5 mg/kg-day | NOAEL (Rattus norvegicus [2]; chronic, duration: 2 years, drinking water, Kidney: Weight changes + Liver: Weight changes + Whole body: Weight changes): 9.5 mg/kg-day

[Cr+3] [Chromium (III)]
LOAEL (Rattus norvegicus [6]; subchronic, duration: 13 weeks, inhalation, nose only, M/F, Fisher 344/Crl BR VAF/Plus, respiratory): 3 mg/m3 | NOEL (% CrO3) (Rattus norvegicus [2]; chronic, duration: 840 days, diet, None Observed): 5

N#CC#N [Cyanogen]
NOAEL (Rattus norvegicus [2]; chronic, duration: 2 years, diet, Nerve: Myelin degeneration + Thyroid: Effects + Whole body: Decreased weight): 21.6 mg/kg-day

CCOC(=O)C(C)OC(=O)c1cc(Oc2ccc(C(F)(F)F)cc2Cl)ccc1[N+](=O)[O-] (stereo not given) [Lactofen]
LEL (Mus musculus [5]; chronic, duration: 78 weeks, oral, hepatocytomegaly in males + Increased absolute and relative liver weight): 1.5 mg/kg-day

O=c1ccc(=O)[nH][nH]1 [Maleic hydrazide]
LEL (Rattus norvegicus [1]; chronic, duration: 2 years, diet, M/F, renal dysfunction): 500 mg/kg-day | LOAEL (Rattus norvegicus [2]; chronic, duration: 28 months, diet, Kidney: Altered function): 500 mg/kg-day

CCc1cccc(C)c1N(C(=O)CCl)C(C)COC (stereo not given) [Metolachlor]
LOEL (Rattus norvegicus [7]; [13]): 800 mg/kg-day and 500 mg/kg-day | NOEL (Rattus norvegicus [7]; [13]): 400 mg/kg-day and 300 mg/kg-day | LEL (Rattus norvegicus [1]; [14]): 150 mg/kg-day | NOEL (Rattus norvegicus [1]; [14]): 15 mg/kg-day | LEL (Rattus norvegicus [1]; [15]): 50 mg/kg-day | NOEL (Rattus norvegicus [1]; [15]): 15 mg/kg-day | NOAEL (Rattus norvegicus [2]; chronic, duration: 2 years, diet, Whole body: Decreased weight gain): 23.4 mg/kg-day

CN(C)c1ccccc1 [N,N-Dimethylaniline]
NOAEL (Rattus norvegicus [8]; short-term, duration: 14 days): 93.8 mg/kg-day | NOAEL (Rattus norvegicus [8]; subchronic, duration: 13 weeks): 31.2 mg/kg-day | LOAEL (Mus musculus [9]; short-term, duration: 15 days): 188 mg/kg-day | NOAEL (Mus musculus [9]; short-term, duration: 15 days): 93.8 mg/kg-day | LOAEL (Mus musculus [9]; subchronic, duration: 13 weeks): 62.5 mg/kg-day | NOAEL (Mus musculus [9]; subchronic, duration: 13 weeks): 31.2 mg/kg-day | LOAEL (Mus musculus [5]; subchronic, oral, gavage, splenomegaly, increased splenic hemosiderosis and hematopoiesis): 31.2 mg/kg-day | NOEL (Rattus norvegicus [3]; subchronic, duration: 13 weeks, gavage, M/F, Fischer 344, Body Weight Changes: decrease + Histopathology: Spleen-Hematopoiesis, extramedullary Spleen-Hemosiderosis Kidney-Pigmentation Liver-…): < 31 mg/kg-day | NOEL (Rattus norvegicus [3]; subchronic, gavage, M, Sprague-Dawley, Clinical Observation: Dark-red discoloration of skin R + Functional Observational Battery: Dark-red discoloration of skin R + Hematology: …): 1 mg/kg-day

c1ccc2ccccc2c1 [Naphthalene]
LOAEL (Rattus norvegicus [6]; chronic, duration: 105 weeks, inhalation, M/F, Fischer 344, respiratory): 52.4 mg/m3 | LOAEL (Rattus norvegicus [6]; reproduction developmental, duration: 9 days, oral, gavage, F, Sprague-Dawley, neurological): 50 mg/kg-day | LOAEL (Rattus norvegicus [1]; [16]): 200 mg/kg-day | NOAEL (Rattus norvegicus [1]; [16]): 100 mg/kg-day | LOAEL (Mus musculus [5]; chronic, inhalation, nasal effects: hyperplasia and metaplasia in respiratory and olfactory epithelium, respectively): 52.4 mg/m3

[Ni] [Nickel]
NOAEL (Rattus norvegicus [6]; chronic, duration: 2 years, inhalation, M/F, Fischer 344, respiratory): 0.03 mg/m3 | NOAEL (Rattus norvegicus [6]; subchronic, duration: 13 weeks, inhalation, M/F, Fischer 344, respiratory): 0.06 mg/m3 | NOAEL (Rattus norvegicus [2]; chronic, duration: 2 years, diet, Organs, major: Decreased organ weight + Whole body: Decreased body weight): 7.8 mg/kg-day

Brc1cc(Oc2cc(Br)c(Br)c(Br)c2Br)c(Br)c(Br)c1Br [Octabromodiphenyl ether]
NOAEL (Rattus norvegicus [6]; subchronic, duration: 13 weeks, inhalation, nose only, M/F, Crl:CD(SD) BR, endocrine): 1.1 mg/m3 | LOAEL (Rattus norvegicus [1]; [17]): 5 mg/kg-day | NOAEL (Rattus norvegicus [1]; [17]): 2.51 mg/kg-day | NOAEL (Rattus norvegicus [2]; subchronic, duration: 90 days, gavage, Liver: Histological changes): 2.5 mg/kg-day

CCCC1COC(Cn2cncn2)(c2ccc(Cl)cc2Cl)O1 (stereo not given) [Propiconazole]
NOEL (Rattus norvegicus [7]; duration: 7 days, Wistar, Neither + effect on AGD in 2500mg/kg at birth / significant increase in testis wt at PND 50 in 500 and 2500 mg/kg but not at PND 92 or …): 2500 mg/kg-day | LEL (Canidae): 6.25 mg/kg-day | NOEL (Canidae): 1.25 mg/kg-day

CCN(CC)C(=S)[S-].[Na+] [Sodium diethyldithiocarbamate]
LOAEL (Rattus norvegicus [1]; chronic, M/F, Reduced body weight and cataracts in females): 62.5 mg/kg-day | LOAEL (Rattus norvegicus [1]; [18]): 100 mg/kg-day | NOEL (Rattus norvegicus [1]; [18]): 30 mg/kg-day | NOEL (Rattus norvegicus [2]; subchronic, duration: 90 days, Eye: Cataracts + Whole body: Decreased weight): 30 mg/kg-day

CCOP(=S)(OCC)OP(=S)(OCC)OCC [Sulfotepp]
LEL (Rattus norvegicus [1]; [19]): 1 mg/kg-day | NOEL (Rattus norvegicus [1]; [19]): 0.5 mg/kg-day | NOEL (Rattus norvegicus [2]; subchronic, duration: 3 months, diet, Blood: Decreased cholinesterase activity + Erythrocytes: Decreased cholinesterase activity): 0.5 mg/kg-day

Cc1cccc(O)c1 [m-Cresol]
LOAEL (Rattus norvegicus [1]; [20]): 150 mg/kg-day | NOAEL (Rattus norvegicus [1]; [20]): 50 mg/kg-day | NOAEL (Rattus norvegicus [3]; short-term, duration: 28 days, diet, M/F, Fischer 344, Body Weight Changes: Mean body weight decrease, Body weight gain decrease + Food Consumption: decrease + Absolute Organ Weight: Brain …): 3000 ppm | NOAEL (Rattus norvegicus [3]; subchronic, duration: 13 weeks, gavage, M/F, Sprague-Dawley, Deaths + Clinical Observation: Lethargy Tremors Hunched posture Rough hair coats + Body Weight Changes: Mean body weight decrease, Body …): 50 mg/kg-day | NOAEL (Rattus norvegicus [2]; subchronic, duration: 90 days, gavage, Nervous system: Neurotoxicity + Whole body: Decreased weight gain): 50 mg/kg-day
